The record followed here is patent US4581366A, “Aldose reductase inhibition by spiro indoline derivatives” (Imperial Chemical Industries PLC, priority 1983, dated 1986).

Test [1] concerns aldose reductase. As to the kind of experiment: in vivo aldose reductase inhibition in streptozotocin-diabetic rats (residual sorbitol in sciatic nerve). On the set-up: species or system rat. To be noted: dosed daily for 2-5 days, 2-4 hours after final dose. The method, then: Thus, rats are made diabetic (as evidenced by severe glucosuria being present) by dosing with streptozotocin. The animals are then dosed daily with the test compound for 2-5 days. The animals are then killed 2-4 hours after the final dose and the eye lenses and/or sciatic nerves are removed. After a standard work-up procedure the residual sorbitol levels in each tissue are determined by gas liquid chromatography after conversion to the polytrimethysilyl derivatives. Inhibition of aldose reductase in vivo is then assessed by comparing the residual sorbitol levels in tissues from the dosed diabetic group of rats with those of an undosed group of diabetic rats and an undosed, normal group of rats.
(§1) In the above in vivo test, an effective dose (ED) may be defined as the oral dose at which the residual sorbitol level in the sciatic nerve is reduced to a level similar to that in the sciatic nerve of normal, undosed rats. In this test the novel compound of formula I has an ED of approximately 1.76 mg/kg. as the racemic form and of approximately 0.62 mg/kg. as the dextrorotatory, optically active form.

The target in test [2] is T1, aldose reductase (Bos taurus, UniProt P16116).
T1 construct: partially purified aldose reductase is isolated in known manner from bovine lenses; from tissue; host or cells: bovine lens
The test can be described thus: in vitro inhibition of partially purified aldose reductase from bovine lenses (reduction of glucose to sorbitol, spectrophotometric). Format: biochemical. The following applies: read-out: IC50 (concentration necessary to inhibit to the extent of 50% the enzyme's ability to reduce glucose to sorbitol). On the procedure:
Thus, partially purified aldose reductase is isolated in known manner from bovine lenses. The percentage inhibition of this enzyme's ability in vitro to reduce aldoses to polyhydric alcohols, and particularly to reduce glucose to sorbitol, caused by a test compound is then determined using standard spectrophotometric methods.
as §1

On to `O=C1NC(=O)C2(N1)C(=O)N(Cc1ccc(Br)cc1F)c1c(Cl)cccc12` (racemic) [compound of formula I, racemic form, (±)-1'-(4-bromo-2-fluorobenzyl)-7'-chloro-spiro[imidazolidine-4,3'-indoline]-2,2',5-trione], for which, in the test on aldose reductase [1], the “effective dose (ED): oral dose at which the residual sorbitol level in the sciatic nerve is reduced to a level similar to that of normal, undosed rats” value is given as “approximately 1.76 mg/kg”. Also, the IC50 at aldose reductase [2] was approximately 24 nM.
As to `O=C1NC(=O)C2(N1)C(=O)N(Cc1ccc(Br)cc1F)c1c(Cl)cccc12` (single isomer, unassigned; (+)) [(+)-1'-(4-bromo-2-fluorobenzyl)-7'-chloro-spiro[imidazolidine-4,3'-indoline]-2,2',5-trione], the “effective dose (ED): oral dose at which the residual sorbitol level in the sciatic nerve is reduced to a level similar to that of normal, undosed rats” value with aldose reductase [1] is given as “approximately 0.62 mg/kg”. Moreover, the IC50 at aldose reductase [2] was approximately 9.8 nM.
